Each molecule was assayed against Beta-3 Adrenergic Receptor (Homo sapiens (Human), UniProt P13945) (assay: Homogeneous Time-Resolved Fluorescence (HTRF) cAMP antagonist assay, IC50 determination). Details: CHO-K1 cells stably expressing recombinant receptor, isoproterenol at EC90.
Assay type: cell-based
Summary of the method: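 CHO-K1 cells stably expressing the recombinant receptor were preincubated with compound (10-point, 5-fold dilutions; top final typically 10 or 100 μM) in PBS with 1 mM IBMX, then stimulated with isoproterenol at its EC90 for 1 h at room temperature. cAMP was read by HTRF against an on-plate standard curve.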

Beta-3 Adrenergic Receptor, sequence (P13945 whole entry, species assumed): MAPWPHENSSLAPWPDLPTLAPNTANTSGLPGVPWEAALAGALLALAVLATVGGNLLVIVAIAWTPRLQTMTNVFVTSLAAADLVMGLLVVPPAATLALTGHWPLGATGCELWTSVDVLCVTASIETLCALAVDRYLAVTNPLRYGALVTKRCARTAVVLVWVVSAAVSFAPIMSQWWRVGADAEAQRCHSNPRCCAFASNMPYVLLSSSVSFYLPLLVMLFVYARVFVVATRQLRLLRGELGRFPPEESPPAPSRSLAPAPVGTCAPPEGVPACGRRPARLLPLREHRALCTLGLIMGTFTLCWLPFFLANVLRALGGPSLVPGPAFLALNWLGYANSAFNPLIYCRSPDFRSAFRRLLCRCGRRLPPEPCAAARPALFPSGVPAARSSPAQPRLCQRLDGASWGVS

IC50	SMILES
40.3 nM	CCn1cc(S(=O)(=O)N2CCC3(CC2)C[C@@H](NC[C@H](O)COc2cccc(S(N)(=O)=O)c2)CO3)c(=O)c2ccccc21 [Compound 550, 3-((S)-3-((R)-8-(1-ethyl-4-oxo-1,4-dihydroquinolin-3-ylsulfonyl)-1-oxa-8-azaspiro[4.5]decan-3-ylamino)-2-hydroxypropoxy)benzenesulfonamide]
31.9 nM	CN1CCOc2ncc(S(=O)(=O)N3CCC4(CC3)C[C@@H](NC[C@H](O)COc3cccc(S(=O)(=O)NCC(F)F)c3)CO4)cc21 [Compound 461, N-(2,2-difluoroethyl)-3-((S)-2-hydroxy-3-((R)-8-(1-methyl-2,3-dihydro-1H-pyrido[2,3-b][1,4]oxazin-7-ylsulfonyl)-1-oxa-8-azaspiro[4.5]decan-3-ylamino)propoxy)benzenesulfonamide]
93.4 nM	CNS(=O)(=O)c1cccc(OC[C@@H](O)CNC2COC3(CCN(S(=O)(=O)c4ccc(N5CCNCC5)nc4)CC3)C2)c1 (stereo partly drawn) [Compound 430, 3-((2S)-2-hydroxy-3-(8-(6-(piperazin-1-yl)pyridin-3-ylsulfonyl)-1-oxa-8-azaspiro[4.5]decan-3-ylamino)propoxy)-N-methylbenzenesulfonamide]
156 nM	CCNS(=O)(=O)c1cccc(OC[C@@H](O)CNC2COC3(CCN(S(=O)(=O)c4ccc(-c5ccccc5)s4)CC3)C2)c1 (stereo partly drawn) [Compound 233, N-ethyl-3-((2S)-2-hydroxy-3-(8-(5-phenylthiophen-2-ylsulfonyl)-1-oxa-8-azaspiro[4.5]decan-3-ylamino)propoxy)benzenesulfonamide]
107 nM	O=S(=O)(NCC(F)F)c1cccc(OC[C@@H](O)CNC2COC3(CCN(S(=O)(=O)c4ccc5ccccc5c4)CC3)C2)c1 (stereo partly drawn) [Compound 9, N-(2,2-difluoroethyl)-3-((2S)-2-hydroxy-3-(8-(naphthalen-2-ylsulfonyl)-1-oxa-8-azaspiro[4.5]decan-3-ylamino)propoxy)benzenesulfonamide]
36.4 nM	CCC(C)(C)c1ccc(S(=O)(=O)N2CCC3(CC2)CC(NC[C@H](O)COc2cccc(S(=O)(=O)NC)c2)CO3)cc1 (stereo partly drawn) [Compound 120, 3-((2S)-2-hydroxy-3-(8-(4-tert-pentylphenylsulfonyl)-1-oxa-8-azaspiro[4.5]decan-3-ylamino)propoxy)-N-methylbenzenesulfonamide]
14 nM	CNS(=O)(=O)c1cccc(OC[C@@H](O)CNC2COC3(CCN(S(=O)(=O)c4cc(F)ccc4F)CC3)C2)c1 (stereo partly drawn) [Compound 205, 3-((2S)-3-(8-(2,5-difluorophenylsulfonyl)-1-oxa-8-azaspiro[4.5]decan-3-ylamino)-2-hydroxypropoxy)-N-methylbenzenesulfonamide]
31.1 nM	CNS(=O)(=O)c1cccc(OC[C@@H](O)CN[C@H]2COC3(CCN(S(=O)(=O)c4cnc5c(c4)N(C)C[C@@H](C)O5)CC3)C2)c1 [Compound 468, 3-((S)-3-((R)-8-((R)-1,3-dimethyl-2,3-dihydro-1H-pyrido[2,3-b][1,4]oxazin-7-ylsulfonyl)-1-oxa-8-azaspiro[4.5]decan-3-ylamino)-2-hydroxypropoxy)-N-methylbenzenesulfonamide]
877 nM	Cc1cc(S(=O)(=O)N2CCC3(CC2)CC(NC[C@H](O)COc2cccc(S(=O)(=O)NCCCN(C)C)c2)CO3)ccc1Br (stereo partly drawn) [Compound 310, 3-((2S)-3-(8-(4-bromo-3-methylphenylsulfonyl)-1-oxa-8-azaspiro[4.5]decan-3-ylamino)-2-hydroxypropoxy)-N-(3-(dimethylamino)propyl)benzenesulfonamide]
12.8 nM	CNS(=O)(=O)c1cccc(OC[C@@H](O)CN[C@@H]2COC3(CCN(S(=O)(=O)c4ccc5c(c4)NC(=O)CO5)CC3)C2)c1 [Compound 278, 3-((S)-2-hydroxy-3-((S)-8-(3-oxo-3,4-dihydro-2H-benzo[b][1,4]oxazin-6-ylsulfonyl)-1-oxa-8-azaspiro[4.5]decan-3-ylamino)propoxy)-N-methylbenzenesulfonamide]
73 nM	CNS(=O)(=O)c1cccc(OC[C@@H](O)CN[C@H]2COC3(CCN(S(=O)(=O)c4ccc5[nH]c(=O)[nH]c5c4)CC3)C2)c1 [Compound 499, 3-((S)-2-hydroxy-3-((R)-8-(2-oxo-2,3-dihydro-1H-benzo[d]imidazol-5-ylsulfonyl)-1-oxa-8-azaspiro[4.5]decan-3-ylamino)propoxy)-N-methylbenzenesulfonamide]
90.7 nM	CNS(=O)(=O)c1cccc(OC[C@@H](O)CNC2COC3(CCN(S(=O)(=O)c4cn(C)nc4C(F)(F)F)CC3)C2)c1 (stereo partly drawn) [Compound 152, 3-((2S)-2-hydroxy-3-(8-(1-methyl-3-(trifluoromethyl)-1H-pyrazol-4-ylsulfonyl)-1-oxa-8-azaspiro[4.5]decan-3-ylamino)propoxy)-N-methylbenzenesulfonamide]
43.6 nM	CNS(=O)(=O)c1cccc(OC[C@@H](O)CNC2COC3(CCN(S(=O)(=O)c4ccc(OC)c(OC)c4)CC3)C2)c1 (stereo partly drawn) [Compound 153, 3-((2S)-3-(8-(3,4-dimethoxyphenylsulfonyl)-1-oxa-8-azaspiro[4.5]decan-3-ylamino)-2-hydroxypropoxy)-N-methylbenzenesulfonamide]
127 nM	CCC(CC)CNS(=O)(=O)c1cccc(OC[C@@H](O)CNC2COC3(CCN(S(=O)(=O)c4ccc5ccccc5c4)CC3)C2)c1 (stereo partly drawn) [Compound 97, N-(2-ethylbutyl)-3-((2S)-2-hydroxy-3-(8-(naphthalen-2-ylsulfonyl)-1-oxa-8-azaspiro[4.5]decan-3-ylamino)propoxy)benzenesulfonamide]
24.4 nM	CNS(=O)(=O)c1cccc(OC[C@@H](O)CN[C@H]2COC3(CCN(S(=O)(=O)c4cnc5ccc(C)cc5c4O)CC3)C2)c1 [Compound 533, 3-((S)-2-hydroxy-3-((R)-8-(4-hydroxy-6-methylquinolin-3-ylsulfonyl)-1-oxa-8-azaspiro[4.5]decan-3-ylamino)propoxy)-N-methylbenzenesulfonamide]
109 nM	CNS(=O)(=O)c1cccc(OC[C@@H](O)CNC2COC3(CCN(S(=O)(=O)c4ccc(OC)c5c4CCCC5)CC3)C2)c1 (stereo partly drawn) [Compound 222, 3-((2S)-2-hydroxy-3-(8-(4-methoxy-5,6,7,8-tetrahydronaphthalen-1-ylsulfonyl)-1-oxa-8-azaspiro[4.5]decan-3-ylamino)propoxy)-N-methylbenzenesulfonamide]
31.1 nM	CNS(=O)(=O)c1cccc(OC[C@@H](O)CNC2COC3(CCN(S(=O)(=O)c4ccc(N5CCOCC5)nc4)CC3)C2)c1 (stereo partly drawn) [Compound 406, 3-((2S)-2-hydroxy-3-(8-(6-morpholinopyridin-3-ylsulfonyl)-1-oxa-8-azaspiro[4.5]decan-3-ylamino)propoxy)-N-methylbenzenesulfonamide]
4.36 nM	CNS(=O)(=O)c1cccc(OC[C@@H](O)CNC2COC3(CCN(S(=O)(=O)c4ccc(Br)c(Cl)c4)CC3)C2)c1 (stereo partly drawn) [Compound 155, 3-((2S)-3-(8-(4-bromo-3-chlorophenylsulfonyl)-1-oxa-8-azaspiro[4.5]decan-3-ylamino)-2-hydroxypropoxy)-N-methylbenzenesulfonamide]
272 nM	CCNS(=O)(=O)c1cccc(OC[C@@H](O)CNC2COC3(CCN(S(=O)(=O)c4ccc5nsnc5c4)CC3)C2)c1 (stereo partly drawn) [Compound 229, 3-((2S)-3-(8-(benzo[c][1,2,5]thiadiazol-5-ylsulfonyl)-1-oxa-8-azaspiro[4.5]decan-3-ylamino)-2-hydroxypropoxy)-N-ethylbenzenesulfonamide]

From patent US11987588B2, “Modulators of the beta-3 adrenergic receptor useful for the treatment or prevention of heart failure and disorders related thereto” (Arena Pharmaceuticals, Inc., priority 2017, dated 2024)
